Data from patent publication US10435399B2, “HDAC6 inhibitory heterocyclic compound” (TAKEDA PHARMACEUTICAL COMPANY LIMITED, priority 2017, dated 2019).

Each compound was assayed against T1, HDAC6 enzyme (Homo sapiens, UniProt Q9UBN7) (assay: HDAC6 enzyme inhibitory activity (HDAC-Glo I/II Assay kit)). Conditions: 10 μM; wells without enzyme = 100% inhibition.
T1 construct: transducing full length HDAC6 gene into Sf-9 insect cells; GST; purchased SignalChem; host or cells: Sf-9 insect cells
T1 sequence (Q9UBN7 1-1215): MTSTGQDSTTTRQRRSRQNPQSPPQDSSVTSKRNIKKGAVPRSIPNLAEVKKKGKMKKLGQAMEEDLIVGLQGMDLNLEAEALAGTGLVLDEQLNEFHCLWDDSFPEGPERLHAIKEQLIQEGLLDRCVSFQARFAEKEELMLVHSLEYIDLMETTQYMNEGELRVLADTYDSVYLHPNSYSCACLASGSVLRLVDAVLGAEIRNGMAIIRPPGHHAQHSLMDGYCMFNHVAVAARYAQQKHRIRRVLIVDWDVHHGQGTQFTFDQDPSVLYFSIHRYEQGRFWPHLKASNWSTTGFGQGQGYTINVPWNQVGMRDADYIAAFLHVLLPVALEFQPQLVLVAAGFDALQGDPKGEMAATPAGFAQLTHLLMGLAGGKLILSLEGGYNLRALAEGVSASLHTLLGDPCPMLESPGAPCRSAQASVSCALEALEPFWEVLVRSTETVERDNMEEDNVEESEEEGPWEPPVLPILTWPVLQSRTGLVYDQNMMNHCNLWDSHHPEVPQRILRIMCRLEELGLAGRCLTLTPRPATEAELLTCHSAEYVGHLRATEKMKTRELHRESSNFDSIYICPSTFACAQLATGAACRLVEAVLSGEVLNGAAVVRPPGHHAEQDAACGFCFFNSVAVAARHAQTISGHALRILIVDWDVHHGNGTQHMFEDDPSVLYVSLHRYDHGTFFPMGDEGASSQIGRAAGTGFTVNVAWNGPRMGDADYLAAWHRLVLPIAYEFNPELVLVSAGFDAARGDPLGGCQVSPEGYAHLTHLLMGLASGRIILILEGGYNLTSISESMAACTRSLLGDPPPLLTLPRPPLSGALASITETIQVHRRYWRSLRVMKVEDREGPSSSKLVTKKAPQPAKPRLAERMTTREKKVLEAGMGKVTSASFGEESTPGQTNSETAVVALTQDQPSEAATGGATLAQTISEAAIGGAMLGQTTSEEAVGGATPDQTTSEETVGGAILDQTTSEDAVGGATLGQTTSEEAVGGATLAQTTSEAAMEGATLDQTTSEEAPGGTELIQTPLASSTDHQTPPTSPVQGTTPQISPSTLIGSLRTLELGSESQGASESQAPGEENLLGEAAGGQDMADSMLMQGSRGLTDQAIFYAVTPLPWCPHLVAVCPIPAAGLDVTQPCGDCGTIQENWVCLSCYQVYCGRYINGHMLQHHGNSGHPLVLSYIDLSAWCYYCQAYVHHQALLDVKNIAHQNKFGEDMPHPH
Format: biochemical
How it was run: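 Sf-9-derived GST-purified full-length HDAC6 + cpd, 60 min RT, 24 mM Tris pH 7.5/0.6 mM glutathione/0.01% Tween-20; add HDAC-Glo substrate-developer, 20 min RT; luminescence. No-enzyme = 100% inhibition.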
With `O=C1c2cc(-c3nnc(C(F)F)o3)cnc2CN1[C@@H]1COCC[C@H]1Oc1ccc(F)cc1` [Example 633, 1,5-anhydro-2,4-dideoxy-2-(3-(5-(difluoromethyl)-1,3,4-oxadiazol-2-yl)-5-oxo-5,7-dihydro-6H-pyrrolo[3,4-b]pyridin-6-yl)-3-O-(4-fluorophenyl)-threo-pentitol (Optical Isomer)] the “HDAC6 inhibitory rate (%) (10 μM)” value was 100%.

Same assay, conditions: 10 μM; wells without enzyme = 100% inhibition; read-out: HDAC6 inhibitory rate (%) (10 μM)
`CC(F)(F)C(=O)N[C@@H]1[C@H](N2Cc3ccc(-c4nnc(C(F)F)o4)cc3C2=O)CCCC1(F)F` [Example 626, N-((1R,6R)-6-(6-(5-(difluoromethyl)-1,3,4-oxadiazol-2-yl)-1-oxo-1,3-dihydro-2H-isoindol-2-yl)-2,2-difluorocyclohexyl)-2,2-difluoropropanamide] gave an inhibition at 10 µM of 100%.
With `COC(=O)N1CCC[C@@H](N2Cc3ccc(-c4nnc(C(F)F)o4)cc3C2=O)[C@H]1c1ccc(F)cc1` [Example 627, methyl (2R,3R)-3-(6-(5-(difluoromethyl)-1,3,4-oxadiazol-2-yl)-1-oxo-1,3-dihydro-2H-isoindol-2-yl)-2-(4-fluorophenyl)piperidine-1-carboxylate] the inhibition at 10 µM was 100%.
Compound `O=C1c2cc(-c3nnc(C(F)F)o3)ccc2CN1[C@@H]1CCCC(F)(F)[C@@H]1NC(=O)C(F)(F)C(F)F` [Example 628, N-((1R,6R)-6-(6-(5-(difluoromethyl)-1,3,4-oxadiazol-2-yl)-1-oxo-1,3-dihydro-2H-isoindol-2-yl)-2,2-difluorocyclohexyl)-2,2,3,3-tetrafluoropropanamide] has an inhibition at 10 µM of 100%.
In the case of `O=C(N[C@@H]1[C@H](N2Cc3ccc(-c4nnc(C(F)F)o4)cc3C2=O)CCCC1(F)F)C(F)F` [Example 629, N-((1R,6R)-6-(6-(5-(difluoromethyl)-1,3,4-oxadiazol-2-yl)-1-oxo-1,3-dihydro-2H-isoindol-2-yl)-2,2-difluorocyclohexyl)-2,2-difluoroacetamide], the inhibition at 10 µM was 100%.
In the case of `Cc1ccc(C2CCCCN2N2Cc3ccc(-c4nnc(C(F)F)o4)cc3C2=O)cn1` (stereo not shown) [Example 630, 6-(5-(difluoromethyl)-1,3,4-oxadiazol-2-yl)-2-(2-(6-methylpyridin-3-yl)piperidin-1-yl)isoindolin-1-one], the inhibition at 10 µM was 100%.
With `Cn1cc(C(C)(C)O)c(N2Cc3ccc(-c4nnc(C(F)F)o4)cc3C2=O)n1` [Example 631, 6-(5-(difluoromethyl)-1,3,4-oxadiazol-2-yl)-2-(4-(2-hydroxypropan-2-yl)-1-methyl-1H-pyraozl-3-yl)isoindolin-1-one] the inhibition at 10 µM was 99%.
For `O=C1c2cc(-c3nnc(C(F)F)o3)cnc2CN1[C@@H]1COCC[C@H]1Oc1ccc(F)cc1` [Example 632, 1,5-anhydro-2,4-dideoxy-2-(3-(5-(difluoromethyl)-1,3,4-oxadiazol-2-yl)-5-oxo-5,7-dihydro-6H-pyrrolo[3,4-b]pyridin-6-yl)-3-O-(4-fluorophenyl)-threo-pentitol], the inhibition at 10 µM was 99%.
Compound `CC(C)(C)OC(=O)N[C@@H]1CCC(F)(F)C[C@H]1N1Cc2ccc(-c3nnc(C(F)F)o3)cc2C1=O` [Example 634, tert-butyl ((1R,2R)-2-(6-(5-(difluoromethyl)-1,3,4-oxadiazol-2-yl)-1-oxo-1,3-dihydro-2H-isoindol-2-yl)-4,4-difluorocyclohexyl)carbamate] has an inhibition at 10 µM of 99%.
`O=C1c2cc(-c3nnc(C(F)F)o3)ccc2CN1[C@@H]1CC(F)(F)CC[C@H]1NC(=O)C(F)(F)C(F)(F)F` [Example 635, N-((1R,2R)-2-(6-(5-(difluoromethyl)-1,3,4-oxadiazol-2-yl)-1-oxo-1,3-dihydro-2H-isoindol-2-yl)-4,4-difluorocyclohexyl)-2,2,3,3,3-pentafluoropropanamide] gave an inhibition at 10 µM of 99%.
`O=C1c2cc(-c3nnc(C(F)F)o3)ccc2CN1[C@@H]1CC(F)(F)CC[C@H]1NC(=O)C(F)(F)C(F)F` [Example 636, N-((1R,2R)-2-(6-(5-(difluoromethyl)-1,3,4-oxadiazol-2-yl)-1-oxo-1,3-dihydro-2H-isoindol-2-yl)-4,4-difluorocyclohexyl)-2,2,3,3-tetrafluoropropanamide] gave an inhibition at 10 µM of 100%.
`CC(F)(F)C(=O)N[C@@H]1CCC(F)(F)C[C@H]1N1Cc2ccc(-c3nnc(C(F)F)o3)cc2C1=O` [Example 637, N-((1R,2R)-2-(6-(5-(difluoromethyl)-1,3,4-oxadiazol-2-yl)-1-oxo-1,3-dihydro-2H-isoindol-2-yl)-4,4-difluorocyclohexyl)-2,2-difluoropropanamide] showed an inhibition at 10 µM of 100%.
For `N[C@@H]1CCC(F)(F)C[C@H]1N1Cc2ncc(-c3nnc(C(F)F)o3)cc2C1=O` [Example 638, 6-((1R,2R)-2-amino-5,5-difluorocyclohexyl)-3-(5-(difluoromethyl)-1,3,4-oxadiazol-2-yl)-6,7-dihydro-5H-pyrrollo[3,4-b]pyridin-5-one], the inhibition at 10 µM was 93%.
For `CC(F)(F)C(=O)N[C@@H]1CC(F)(F)CC[C@H]1N1Cc2ncc(-c3nnc(C(F)F)o3)cc2C1=O` [Example 639, N-((1R,2R)-2-(3-(5-(difluoromethyl)-1,3,4-oxadiazol-2-yl)-5-oxo-5,7-dihydro-6H-pyrrolo[3,4-b]pyridin-6-yl)-5,5-difluorocyclohexyl)-2,2-difluoropropanamide], the inhibition at 10 µM was 100%.
`O=C1c2cc(-c3nnc(C(F)F)o3)cnc2CN1[C@@H]1CCC(F)(F)C[C@H]1NC(=O)C(F)(F)C(F)(F)F` [Example 640, N-((1R,2R)-2-(3-(5-(difluoromethyl)-1,3,4-oxadiazol-2-yl)-5-oxo-5,7-dihydro-6H-pyrrolo[3,4-b]pyridin-6-yl)-5,5-difluorocyclohexyl)-2,2,3,3,3-pentafluoropropanamide] was tested, and the inhibition at 10 µM was 100%.
Compound `O=C1c2cc(-c3nnc(C(F)F)o3)cnc2CN1[C@@H]1CCC(F)(F)C[C@H]1NC(=O)C(F)(F)C(F)F` [Example 641, N-((1R,2R)-2-(3-(5-(difluoromethyl)-1,3,4-oxadiazol-2-yl)-5-oxo-5,7-dihydro-6H-pyrrolo[3,4-b]pyridin-6-yl)-5,5-difluorocyclohexyl)-2,2,3,3-tetrafluoropropanamide] has an inhibition at 10 µM of 99%.
`O=C1c2cc(-c3nnc(C(F)F)o3)cnc2CN1[C@@H]1CC(F)(F)CC[C@H]1NC(=O)C(F)(F)C(F)(F)F` [Example 642, N-((1R,2R)-2-(3-(5-(difluoromethyl)-1,3,4-oxadiazol-2-yl)-5-oxo-5,7-dihydro-6H-pyrrolo[3,4-b]pyridin-6-yl)-4,4-difluorocyclohexyl)-2,2,3,3,3-pentafluoropropanamide] showed an inhibition at 10 µM of 100%.
In the case of `CC(F)(F)C(=O)N[C@@H]1CCC(F)(F)C[C@H]1N1Cc2ncc(-c3nnc(C(F)F)o3)cc2C1=O` [Example 643], the inhibition at 10 µM was 100%.
For `O=C1c2cc(-c3nnc(C(F)F)o3)cnc2CN1[C@@H]1CC(F)(F)CC[C@H]1NC(=O)C(F)(F)C(F)F` [Example 644, N-((1R,2R)-2-(3-(5-(difluoromethyl)-1,3,4-oxadiazol-2-yl)-5-oxo-5,7-dihydro-6H-pyrrolo[3,4-b]pyridin-6-yl)-4,4-difluorocyclohexyl)-2,2,3,3-tetrafluoropropanamide], the inhibition at 10 µM was 99%.
Compound `CCN(CC)C(=O)C1CC(F)(F)CCN1N1Cc2ccc(-c3nnc(C(F)F)o3)cc2C1=O` (stereo not shown) [Example 645, 1-(6-(5-(difluoromethyl)-1,3,4-oxadiazol-2-yl)-1-oxo-1,3-dihydro-2H-isoindol-2-yl)-N,N-diethyl-4,4-difluoropiperidine-2-carboxamide] has an inhibition at 10 µM of 99%.
In the case of `O=C1c2cc(-c3nnc(C(F)F)o3)cnc2CN1[C@@H]1COCC[C@H]1Oc1ccc(F)c(F)c1` [Example 646, 1,5-anhydro-2,4-dideoxy-2-(3-(5-(difluoromethyl)-1,3,4-oxadiazol-2-yl)-5-oxo-5,7-dihydro-6H-pyrrolo[3,4-b]pyridin-6-yl)-3-O-(3,4-difluorophenyl)-threo-pentitol], the inhibition at 10 µM was 99%.
`O=C1c2cc(-c3nnc(C(F)F)o3)cnc2CN1[C@@H]1COCC[C@H]1Oc1ccccc1F` [Example 647, 1,5-anhydro-2,4-dideoxy-2-(3-(5-(difluoromethyl)-1,3,4-oxadiazol-2-yl)-5-oxo-5,7-dihydro-6H-pyrrolo[3,4-b]pyridin-6-yl)-3-O-(2-fluorophenyl)-threo-pentitol (optical isomer)] gave an inhibition at 10 µM of 100%.
